Results as given in US20240269292A1.
Entries after “also recorded” stand apart in the source; their conditions may differ. Non-standard residues stand in square brackets, D forms with d. Residues, ends and D or L forms follow the SMILES beside them. Dmt = Cc1cc(O)cc(C)c1C[C@H](N)C(=O)O

Experiments:
[1] = human, SQ; cited from earlier work
[2] = tested on: sub-RPE deposits and visual function; test: APOE4 + high fat diet (HFD) mouse model of dry AMD; type: in vivo; conditions: 3 mg/kg subcutaneous
Protocol: For example, FIG. 2A illustrates the reversal of pre-existing RPE mitochondrial dysfunction and sub-RPE deposits in an ApoE4 mouse model by high-dose elamipretide administered systemically by subcutaneous (SQ) administration (3 mg/kg […]). Aged ApoE4 mice fed a high-fat diet (HFD) develop sub-RPE deposits that reflect the pathobiology of subRPE drusen in patients with dry AMD. ApoE4 mice were treated with elamipretide (n=5; 3 mg/kg SQ daily) or vehicle (n=5) for 4 weeks, continuing HFD from prior 3 mos. […] These untreated mice had thick, severe deposits.

[3] = tested on: retinal pigment epithelium (RPE) cells; conditions: preclinical in vitro models of dry AMD; cited from earlier work
patients with dry AMD [4] = test: ReCLAIM clinical trial in patients with dry AMD; type: in vivo, human; conditions: subcutaneous daily (40 mg)
Protocol: FIG. 3 illustrates summary results of the ReCLAIM study, a phase 1/2 clinical trial of systemically administered (40 mg subcutaneous daily) elamipretide in two cohorts of patients with dry AMD: 1) noncentral geographic atrophy (GA) and 2) high-risk drusen.

[5] = Ocular tissue levels of elamipretide in rabbits after subcutaneous or intravitreal administration; type: in vivo, rabbit
Protocol: For example, maximal systemic dosing of elamipretide is 40 mg daily delivered by subcutaneous route of administration, or approximately […]. […] Meanwhile, peak retina levels following intravitreal injection of 15 μg elamipretide is ˜15 μM. Thus, retinal bioavailability of mitochondrial-targeted peptides following systemic administration of a maximally tolerated dose is suboptimal as compared to intravitreal administration. […] The drug clears from the eye in just a few days, and once a week intravitreal injection in humans is not practical or feasible for treatment of disease in clinical practice. Thus, an extended release drug delivery system is essential to achieve sustained, high levels of drug within the vitreous, retina, and RPE.
Systemic delivery of mitochondrial targeted tetrapeptides by SQ injection have suboptimal efficacy in human patients due to insufficient retinal bioavailability. Sufficient levels of the mitochondrial-targeted tetrapeptides cannot be achieved at the target tissue site (i.e., retina). For example, in humans, maximal dosing is 40 mg SQ (˜0.3-0.9 mg/kg), a dose that is limited by SQ injection site toxicity (FIG. 3). In mice, effective dosing required 3 mg/kg, which is 3-10 fold greater than the mass-adjusted dose in humans. Peak plasma levels are also limited by the drug's rapid blood clearance, and the blood-eye barrier may also impede retinal penetration. […] Thus, higher retinal and choroidal drug levels with continuous drug exposure are desirable.

patients with dry AMD [6] = conditions: subcutaneous, once daily; limited by local injection site reactions; cited from earlier work
[7] = Hydrophobicity and aqueous solubility; type: physicochemical; conditions: native form

## Cc1cc(O)cc(C)c1C[C@H](NC(=O)[C@H](N)CCCNC(=N)N)C(=O)N[C@@H](CCCCN)C(=O)N[C@@H](Cc1ccccc1)C(N)=O [elamipretide, H-d-Arg-Dmt-Lys-Phe-NH2] (H-[dR][Dmt]KF-NH2)
[1]
  Dose-limiting toxicity: local injection site reactions
[2]
  visual function (ERG B-wave amplitudes): increased B-wave amplitudes; also recorded: partially improved visual function
[3]
  Reversal of mitochondrial dysfunction in RPE cell culture: potent for reversal of mitochondrial dysfunction
Patients with dry AMD [4]
  Low-luminance visual acuity / visual function: general mean trend toward improvement in multiple metrics of visual function
[5]; intravitreal injection of 15 μg
  peak retina levels following intravitreal injection: ~15 µM
[5]; rabbit, subcutaneous 1 mg/kg
  choroid levels after 4 hours: undetectable
  drug in the retina after subcutaneous administration: no drug is detected in the retina
  peak choroid levels at 1 hour: ~50 nM
Patients with dry AMD [6]
  maximally tolerated dose in humans: 40 mg
[7]
  Aqueous solubility: high aqueous solubility
